A short description of series [1]: Caco-2 permeability, Method B7. The format is in vitro ADME, human. The conditions noted are these: human; for Papp A→B at 60 min, 10 μM / Papp B→A at 60 min, 10 μM: Caco-2, 10 μM, without P-gp inhibitor; for efflux ratio at 60 min, 10 μM: Caco-2, without P-gp inhibitor, read-out: Efflux ratio Papp B2A/Papp A2B. The source says: (§1) B7. Determination of Caco-2 Permeability
(§2) The Caco-2 cell line, derived from a human colorectal carcinoma, has become an established in vitro model for the prediction of drug absorption across the human intestine. (Sun, D.; Yu, L. X.; Hussain, M. A.; Wall, D. A.; Smith, R. L.; Amidon, G. L. Curr. Opin. Drug Discov. Devel. 2004, 7, 75-85; Bergstrom, C. A. Basic Clin. Pharmacol. Toxicol. 2005, 96, 156-61; Balimane, P. V.; Han, Y. H.; Chong, S. AAPS J. 2006, 8, E1-13; Shah, P.; Jogani, V.; Bagchi, T.; Misra, A. Biotechnol. Prog. 2006, 22, 186-198.) When cultured on semi-permeable membranes, Caco-2 cells differentiate into a highly functionalized epithelial barrier with remarkable morphological and biochemical similarity to the small intestinal columnar epithelium. Fully differentiated cell monolayers can be used to assess the membrane transport properties of novel compounds.
(§3) Assays to determine the permeability of compounds of the invention utilizing Caco-2 cells are commercially available, for example NoAb BioDiscoveries (Mississaugua, ON, Canada) and Absorption Systems (Exton, Pa., USA).
(§4) Permeability across the Caco-2 cell layer was determined by growing the cells on a membrane placed between two (donor and acceptor) chambers. Drug candidates are typically added to the apical (A) side of the cell layer and their appearance in the basolateral (B) side is measured over incubation time. Permeability in this direction represents intestinal absorption. Permeability may also be determined from the basolateral to the apical side of the Caco-2 cell. […]
(§5) Permeability (10 μM) for compounds of the invention in the apical to basolateral and basolateral to apical direction were tested in duplicate. Samples will be collected from the donor and acceptor chambers at the beginning (0 min) and following 60 min of incubation at 37° C. and stored frozen at −70° C. until bioanalysis. Samples for each test compound generated from the Caco-2 permeability assay were further analyzed by LC-MS-MS. The permeability of [^3H]-mannitol and [^3H]-propranolol were determined in parallel as controls.
(§6) The permeability coefficient (Papp) of each compound and radiolabeled standard was determined using the following equation: […]
(§7) where dQ/dT represents the permeability rate, Ci denotes the initial concentration in the donor compartment, and A represents the surface area of the filter. Ci is determined from the mean concentration of duplicate samples taken prior to addition to the donor compartment. Permeability rates were calculated by plotting the cumulative amount of compound measured in the acceptor compartment over time and determining the slope of the line by linear regression analysis. The duplicate and mean apical to basolateral and basolateral to apical Papp's were reported for each compound and standard. […]

A further series addresses CYP3A4 (Homo sapiens, UniProt P08684). Nature of the series: Cytochrome P450 inhibition, Method B6 (two substrates). The note with it: read-out: IC50 CYP 3A4.
The next series has as its target T1, hERG channel (Homo sapiens, UniProt Q12809).
T1 construct: expressed in transfected cells; host or cells: HEK293
Nature of the series: hERG channel inhibition (whole cell IKr currents, HEK293), Method B16. The conditions noted are these: in comparison to vehicle (0.1% DMSO) controls, up to 100 μM. It counts as cell-based. An excerpt: B16. hERG Channel Inhibition
Direct interactions of compounds with the hERG channel account for the majority of known cases of cardiotoxicity. […]
In general terms: The hERG channel carries a current that helps repolarise heart muscle cells.

For a further series, the target named is CYP2D6 (Homo sapiens, UniProt P10635). The series can be described thus: Cytochrome P450 inhibition, Method B6. The note with it: read-out: IC50 CYP 2D6; Table 4a; dextromethorphan used as substrate.
A further series concerns Caco-2 cells. The series can be described thus: Caco-2 permeability, Method B7. The format is in vitro ADME, human. The note with it: for A to B Mean Papp / B to A Mean Papp: Caco-2, 10 μM, without P-gp inhibitor; for Efflux ratio Papp B2A/Papp A2B: Caco-2, without P-gp inhibitor.
Source text: as §1, §2, §3, §4, §5, §6, §7

The mark [2] stands for this setting: Table 4b, midazolam used as substrate.
The mark [3] stands for this setting: Table 4a, nifedipine used as substrate.

Read-outs that look alike come from different tables or passages of the source.

As usually defined, the Papp A→B is how fast a substance crosses the layer from the apical side. Read a high Papp A→B as fast passage. As usually defined, the Papp B→A is the apparent permeability from the basolateral to the apical side of a cell layer. Broadly, the IC50 is the concentration that inhibits the measured activity by half.

Chain of CYP3A4 (P08684 whole entry): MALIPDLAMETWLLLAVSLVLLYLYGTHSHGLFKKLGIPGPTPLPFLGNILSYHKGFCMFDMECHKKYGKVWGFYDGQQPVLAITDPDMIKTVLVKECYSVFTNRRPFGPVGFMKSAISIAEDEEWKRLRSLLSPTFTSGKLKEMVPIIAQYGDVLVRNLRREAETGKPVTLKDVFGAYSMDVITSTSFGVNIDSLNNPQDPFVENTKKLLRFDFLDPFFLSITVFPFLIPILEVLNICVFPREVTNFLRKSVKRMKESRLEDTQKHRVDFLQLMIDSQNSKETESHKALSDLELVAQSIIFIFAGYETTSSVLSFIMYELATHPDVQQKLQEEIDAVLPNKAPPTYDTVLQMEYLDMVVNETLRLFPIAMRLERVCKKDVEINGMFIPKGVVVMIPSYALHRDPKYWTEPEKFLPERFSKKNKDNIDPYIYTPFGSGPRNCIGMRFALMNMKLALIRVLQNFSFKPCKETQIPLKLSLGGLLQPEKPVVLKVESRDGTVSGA
T1 sequence (Q12809 whole entry): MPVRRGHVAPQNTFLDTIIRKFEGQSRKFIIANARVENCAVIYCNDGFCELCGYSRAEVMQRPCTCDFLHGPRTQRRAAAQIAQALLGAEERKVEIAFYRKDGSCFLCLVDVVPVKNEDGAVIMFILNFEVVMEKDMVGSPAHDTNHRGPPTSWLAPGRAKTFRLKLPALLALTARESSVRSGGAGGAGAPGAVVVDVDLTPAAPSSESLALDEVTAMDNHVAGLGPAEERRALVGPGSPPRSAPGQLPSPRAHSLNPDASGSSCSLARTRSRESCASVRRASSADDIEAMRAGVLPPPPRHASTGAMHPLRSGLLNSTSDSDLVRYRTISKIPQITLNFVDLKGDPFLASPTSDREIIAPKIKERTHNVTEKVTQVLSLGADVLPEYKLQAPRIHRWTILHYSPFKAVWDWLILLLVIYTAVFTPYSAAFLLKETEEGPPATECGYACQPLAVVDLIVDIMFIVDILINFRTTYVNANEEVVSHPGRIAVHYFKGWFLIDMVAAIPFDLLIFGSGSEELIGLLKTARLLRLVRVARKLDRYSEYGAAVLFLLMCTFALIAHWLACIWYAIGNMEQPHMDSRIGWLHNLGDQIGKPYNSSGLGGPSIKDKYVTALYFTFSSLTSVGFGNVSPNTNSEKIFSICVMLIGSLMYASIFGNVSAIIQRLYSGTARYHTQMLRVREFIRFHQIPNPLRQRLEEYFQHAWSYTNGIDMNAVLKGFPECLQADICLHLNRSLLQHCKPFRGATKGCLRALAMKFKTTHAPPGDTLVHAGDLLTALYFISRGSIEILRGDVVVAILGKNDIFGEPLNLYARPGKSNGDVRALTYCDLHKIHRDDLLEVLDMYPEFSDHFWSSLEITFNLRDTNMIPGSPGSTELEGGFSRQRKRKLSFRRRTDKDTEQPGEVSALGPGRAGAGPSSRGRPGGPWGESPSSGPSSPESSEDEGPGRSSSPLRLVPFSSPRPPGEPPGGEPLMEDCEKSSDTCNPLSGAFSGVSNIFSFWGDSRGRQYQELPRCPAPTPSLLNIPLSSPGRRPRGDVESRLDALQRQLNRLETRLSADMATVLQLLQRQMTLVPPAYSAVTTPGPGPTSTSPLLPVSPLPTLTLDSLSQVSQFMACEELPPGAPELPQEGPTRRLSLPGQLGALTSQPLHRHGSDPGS
Chain of CYP2D6 (P10635 whole entry): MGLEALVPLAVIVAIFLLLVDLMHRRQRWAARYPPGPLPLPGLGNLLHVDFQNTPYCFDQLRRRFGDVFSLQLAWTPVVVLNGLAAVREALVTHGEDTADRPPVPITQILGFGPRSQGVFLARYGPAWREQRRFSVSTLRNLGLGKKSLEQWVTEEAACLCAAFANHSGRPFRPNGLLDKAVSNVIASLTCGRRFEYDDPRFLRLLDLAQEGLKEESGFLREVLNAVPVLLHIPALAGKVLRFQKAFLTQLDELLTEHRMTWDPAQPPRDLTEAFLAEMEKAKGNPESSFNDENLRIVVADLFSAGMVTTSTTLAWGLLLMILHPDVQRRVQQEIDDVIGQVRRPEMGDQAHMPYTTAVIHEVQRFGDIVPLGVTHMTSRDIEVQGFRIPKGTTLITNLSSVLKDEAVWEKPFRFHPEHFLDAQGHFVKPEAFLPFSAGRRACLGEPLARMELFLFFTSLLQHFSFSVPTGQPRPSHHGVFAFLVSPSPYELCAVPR

Consider `CC(C)[C@@H]1NCCOc2ccccc2C[C@H](O)[C@@H](C)NC(=O)[C@@H](Cc2cccc(F)c2)NC(=O)[C@H](C(C)O)N(C)C1=O` (stereo partly drawn) [Compound 1503], for which, in series [1], the Papp A→B at 60 min, 10 μM was 0.11 ×10⁻⁶ cm/s; the Papp B→A at 60 min, 10 μM is 12 ×10⁻⁶ cm/s; the efflux ratio at 60 min, 10 μM was 109.

Take `CC[C@@H]1CCc2ccc(F)cc2OCCN[C@@H](C(C)C)C(=O)N(C)[C@@H](C(C)O)C(=O)N[C@H](Cc2c[nH]c3ccccc23)C(=O)N1` (stereo partly drawn) [Compound 1505]: in series [1], the Papp A→B at 60 min, 10 μM worked out at 0.091 ×10⁻⁶ cm/s; the Papp B→A at 60 min, 10 μM turned out to be 26.7 ×10⁻⁶ cm/s; the efflux ratio at 60 min, 10 μM worked out at 299.

On to `CC(C)[C@@H]1NCCOc2ccccc2C#C[C@@H](C)NC(=O)[C@@H](Cc2ccccc2)NC(=O)[C@H](C(C)O)N(C)C1=O` (stereo partly drawn) [Compound 1688], for which, in series [1], the apical-to-basolateral permeability (Papp A→B) at 60 min, 10 μM came out at 0.131 ×10⁻⁶ cm/s; the basolateral-to-apical permeability (Papp B→A) at 60 min, 10 μM turned out to be 41.8 ×10⁻⁶ cm/s; the efflux ratio at 60 min, 10 μM was found to be 318.

`CC(C)C1NCCOc2cc(F)ccc2C#CCNC(=O)C(Cc2c[nH]c3ccccc23)NC(=O)C(C(C)O)N(C)C1=O` (stereo not drawn) [Compound 1693]: at CYP3A4 (setting [2]), the IC50 came out at 2.2 µM.

As to `CC(C)[C@@H]1NCCOc2ccccc2C#CCNC(=O)[C@@H](Cc2ccccc2)NC(=O)[C@H](C(C)O)N(C)C1=O` (stereo partly drawn) [Compound 1712], the “effect on hERG channel function” value at hERG channel is recorded as “no significant effect”.

In the case of `CC(O)[C@H]1C(=O)N[C@H](Cc2c[nH]c3ccccc23)C(=O)N[C@H](C)C#Cc2ccc(F)cc2O[C@H](C)CN[C@@H](C2(C)CC2)C(=O)N1C` (stereo partly drawn) [Compound 1720], on CYP3A4 (setting [2]), the concentration for half-maximal inhibition (IC50) worked out at 1.6 µM.

For the compound `CC(C)[C@@H]1NCC2CCc3cccc(c3O2)CCCNC(=O)[C@@H](Cc2ccccc2)NC(=O)[C@H](C(C)O)N(C)C1=O` (stereo partly drawn) [Compound 1777], the IC50 on CYP2D6 was found to be 11.8 µM. In addition, in the series on Caco-2 cells, the A to B Mean Papp worked out at 0.274 ×10⁻⁶ cm/s, the B to A Mean Papp came out at 53.5 ×10⁻⁶ cm/s and the “Efflux ratio Papp B2A/Papp A2B” value was 195. Besides, the IC50 at CYP3A4 (setting [3]) turned out to be 6 µM.

Turning to `CC(O)[C@H]1C(=O)N[C@H](Cc2ccccc2)C(=O)NCCCc2cccc3c2OC(CC3)CN[C@@H](C2CC2)C(=O)N1C` (stereo partly drawn) [Compound 1778], in series [1], the Papp A→B at 60 min, 10 μM came to 0.193 ×10⁻⁶ cm/s; the apparent permeability from basolateral to apical (Papp B→A) at 60 min, 10 μM stood at 32.7 ×10⁻⁶ cm/s; the efflux ratio at 60 min, 10 μM stood at 169.

Consider `CC[C@@H]1NCC2CCc3cccc(c3O2)CCCNC(=O)[C@@H](Cc2ccccc2)NC(=O)[C@H](C(C)O)N(C)C1=O` (stereo partly drawn) [Compound 1780], for which, in series [1], the apparent permeability from apical to basolateral (Papp A→B) at 60 min, 10 μM was 0.099 ×10⁻⁶ cm/s; the apparent permeability from basolateral to apical (Papp B→A) at 60 min, 10 μM amounted to 29.5 ×10⁻⁶ cm/s; the efflux ratio at 60 min, 10 μM was 297.

As for `CC(C)[C@@H]1NCCOc2ccccc2C2CCC(C2)NC(=O)[C@@H](Cc2c[nH]c3ccccc23)NC(=O)[C@H](C(C)O)N(C)C1=O` (stereo partly drawn) [Compound 1843], the IC50 on CYP2D6 amounted to 7.7 µM. Besides, in the series with Caco-2 cells, the A to B Mean Papp was 0.142 ×10⁻⁶ cm/s, the B to A Mean Papp came out at 13.4 ×10⁻⁶ cm/s and the “Efflux ratio Papp B2A/Papp A2B” value came to 95. Also, the 50% inhibitory concentration (IC50) at CYP3A4 (setting [3]) stood at 6.5 µM.

On to `CC(C)[C@@H]1NCCOc2ccccc2C2CCC(C2)NC(=O)[C@@H](Cc2ccccc2)NC(=O)[C@H](C(C)O)N(C)C1=O` (stereo partly drawn) [Compound 1848], for which, in series [1], the Papp A→B at 60 min, 10 μM stood at 0.266 ×10⁻⁶ cm/s; the apparent permeability from basolateral to apical (Papp B→A) at 60 min, 10 μM was found to be 64.2 ×10⁻⁶ cm/s; the efflux ratio at 60 min, 10 μM was 241. In addition, the “effect on hERG channel function” value on hERG channel is recorded as “no significant effect”.

For the compound `CC(O)[C@H]1C(=O)N[C@H](Cc2ccccc2)C(=O)NCC#Cc2c(F)cccc2OCCN[C@@H](C2(C)CC2)C(=O)N1C` (stereo partly drawn) [Compound 1876], in series [1], the apparent permeability from apical to basolateral (Papp A→B) at 60 min, 10 μM came out at 0.097 ×10⁻⁶ cm/s; the Papp B→A at 60 min, 10 μM was determined as 28 ×10⁻⁶ cm/s; the efflux ratio at 60 min, 10 μM stood at 288.

Turning to `CC(O)[C@H]1C(=O)N[C@H](Cc2ccccc2)C(=O)NCC#Cc2ccccc2OCCN[C@@H](C2(C)CC2)C(=O)N1C` (stereo partly drawn) [Compound 1878], in series [1], the apical-to-basolateral permeability (Papp A→B) at 60 min, 10 μM came out at 0.144 ×10⁻⁶ cm/s; the Papp B→A at 60 min, 10 μM is 21.7 ×10⁻⁶ cm/s; the efflux ratio at 60 min, 10 μM was 151.

For the compound `CC(C)[C@@H]1NCCOc2ccccc2C2CCC(C2)NC(=O)[C@@H](Cc2ccc(F)cc2)NC(=O)[C@H](C(C)O)N(C)C1=O` (stereo partly drawn) [Compound 1903], in series [1], the apparent permeability from apical to basolateral (Papp A→B) at 60 min, 10 μM came out at 0.291 ×10⁻⁶ cm/s; the Papp B→A at 60 min, 10 μM was found to be 58.9 ×10⁻⁶ cm/s; the efflux ratio at 60 min, 10 μM turned out to be 203.

As for `CC(O)[C@H]1C(=O)N[C@H](Cc2ccccc2)C(=O)NCC#Cc2ccc(F)cc2OCCN[C@@H](C2(C)CC2)C(=O)N1C` (stereo partly drawn) [Compound 1918], in series [1], the Papp A→B at 60 min, 10 μM is 0.112 ×10⁻⁶ cm/s; the Papp B→A at 60 min, 10 μM turned out to be 42.6 ×10⁻⁶ cm/s; the efflux ratio at 60 min, 10 μM is 380.

As to `CC(C)[C@@H]1NCCOc2cccc(F)c2C#CCNC(=O)[C@@H](Cc2ccccc2)NC(=O)[C@H](C(C)O)N(C)C1=O` (stereo partly drawn) [Compound 1929], in series [1], the apparent permeability from apical to basolateral (Papp A→B) at 60 min, 10 μM is 0.171 ×10⁻⁶ cm/s; the Papp B→A at 60 min, 10 μM was found to be 36.9 ×10⁻⁶ cm/s; the efflux ratio at 60 min, 10 μM was determined as 216. Also, at hERG channel, the “effect on hERG channel function” value is recorded as “no significant effect”.

The values above are taken from patent publication US20110105389A1 (priority 2009, published 2011).
